Test results reported in ChEMBL document CHEMBL1157539, “Thousands of chemical starting points for antimalarial lead identification” (Nature, 2010).

Tested on: Plasmodium falciparum
Experiment: GSK_TCMDC: Inhibition of Plasmodium falciparum 3D7 in whole erythrocytes, using parasite LDH activity as an index of growth.
Format: functional, organism-based

SMILES	XC50 (Plasmodium falciparum, 3D7) [nM]	XC50 [nM]
CCN(c1ccccc1)S(=O)(=O)c1ccc(NC(=O)c2cc(-c3cc(C)ccc3O)n[nH]2)cc1	767	
CC(C)N1CCN(C(CN2CCN(CCCOc3ccccc3-c3ccccc3)CC2)c2ccc(F)cc2)CC1 (centres undefined)	789	
CCCNC(=O)Nc1cc2cc(-c3cccc(CN4CCCCC4)c3)ccc2n2c(C)nnc12	1110	
COc1ccc(NC(=O)/C=C/c2ccccc2Cl)cc1OCCN1CCC(Cc2cc3ccccc3[nH]2)CC1	903	
CCC(C)Oc1ccc(CCCON2C(N)=NC(N)=NC2(C)C)cc1 (centres undefined)	3.2	
COc1ccc2nccc([C@@H](O)CN3CCC(NC(=O)c4cccc(-c5cc(C)no5)c4)CC3)c2c1	345	
CC(=O)c1cccc(NC(=O)C2c3ccccc3C(=O)N(CC(C)C)C2c2cccs2)c1 (centres undefined)	590	
COc1ccc(CNCc2ccc(-c3cccc(-c4nc5cc(F)ccc5[nH]4)c3)cc2)cc1	202	
COc1ccc2nccc([C@@H](O)CN3CCC(NCc4nc5c(cc4Cl)SCC(=O)N5)C(F)C3)c2c1 (some centres undefined)	505	759
O=C(Nc1cc(C(F)(F)F)cc(C(F)(F)F)c1)N1CCC(CN2CCC(c3c[nH]c4ccccc34)CC2)CC1	187	
CCCc1cc(Cc2cnc(N)nc2N)cc2c1OC(C)C2C (centres undefined)	673	
CC(CN1CCN(C)CC1)C(=O)Nc1ccc(-c2ccc(-c3nc4cc(F)ccc4[nH]3)cc2)cc1 (centres undefined)	792	
Cc1ccccc1NC(=O)NC1CCN(CCCCCNC(=O)/C=C/c2ccc(Cl)c(Cl)c2)CC1	769	
Fc1cccc(Cn2ncc3cc(Nc4ncnc5sc(C#Cc6ncc[nH]6)cc45)ccc32)c1	1800	
c1cc(CNC2CCN(CC3CCCCC3)CC2)cc(-n2ccnc2)c1	650	
CCCCCCCNc1cc(C)nc2ccc(OC)cc12	671	
N#Cc1ccc2c(c1)CCN(CCCn1c(-c3ccc4ccccc4c3)nc3ccncc31)CC2	198	
Cc1cc(NC(=O)Nc2ccc(C(C)C)cc2)c2ccccc2n1	662	
c1cc(-c2ccc(CN3CCCC3)cc2)cc(-c2nc3ccccc3[nH]2)c1	690	

SMILES	XC50 (Plasmodium falciparum, 3D7) [nM]	XC50 [nM]
OC(CNC1CCCCC1)Cn1c2ccc(I)cc2c2cc(I)ccc21 (centres undefined)	337	
COc1ccccc1CCNc1ncc(F)c(N[C@@H](Cc2ccccc2)C(=O)NCCc2ccccc2)n1	965	
CN1CCN(c2nsc3ccc(-c4ccc(NC(=O)Nc5cc(C(F)(F)F)ccc5F)cc4)cc23)CC1	245	
Cc1nnc2c(NC(=O)NC3CCCC3)cc3ccc(-c4cccc(CN5CCN(C)CC5)c4)cc3n12	917	
CN(Cc1c(Cl)cnn1C)S(=O)(=O)c1ccc2ccccc2c1	1040	
COc1cc2c(Nc3cccc(NC(=O)c4ccccc4)c3)ncnc2cc1OCCCN1CCOCC1	155	
O=C(Nc1ccc(C(=O)N2CCN(CCN3CCN(c4cccc(C(F)(F)F)c4)CC3)CC2)cc1)c1ccc(C(F)(F)F)cc1	690	
COc1cccc2cc(C(=O)N[C@@H](CC(C)C)C(=O)NC(/C=N/NC(=O)c3ccccc3)CCc3ccccc3)oc12 (some centres undefined)	577	
CCN(CCCN1CCCCC1)c1cc(C)nc(Nc2ccc(C)cc2)n1	411	
Nc1nc(N)c2cc(S(=O)(=O)c3ccc4ccccc4c3)ccc2n1	36.8	
COc1ccc2c(OC)c(CNCCCCCCNCc3ccc4cc(OC)ccc4c3OC)ccc2c1	920	
CN(C)CCOc1cc(NC(=O)Nc2ccc(-c3ccccc3)cc2Cl)ccc1I	245	
Cc1cccc2nc(-c3cccc(-c4ccc(NC(=O)C(C)(C)c5ccccn5)cc4)c3)[nH]c12	685	
O=C(C=Cc1ccc(F)cc1)N1CCN(S(=O)(=O)c2ccc(Cl)cc2)CC1	634	
CC(C)Oc1cc2c(cc1NS(=O)(=O)c1ccc(-c3ccc(Cl)s3)cc1F)CCN(C)CC2	712	
Cc1cc(CNCCCCCCCNCc2ccc(Cl)cc2)ccc1O	975	
COc1ccc(-c2cccc(NC(=O)c3ccc(Cl)cc3)c2)cc1CN1CCCN(C)CC1	387	
Cc1ccc2c(=NN=Cc3ccc(Cl)cc3)cc(C)[nH]c2c1	945	
COc1cc2nc(NCc3cccc(CNC(=O)c4ccc(-c5ccc(C(C)=O)cc5)cc4)c3)nc(N)c2cc1OC	118	
